Data published in patent US20210353631A1, “1,4-Benzoxazines for the Treatment of Cancers and Other Neurodegenerative Diseases” (Neugeneron LLC, priority 2020, published 2021).

Legend:
Format in all cases: binding
CSNK1E = molecular target: T1, CSNK1E (Homo sapiens, UniProt P49674); test: KINOMEscan kinome profiling (DiscoveRx/Eurofin platform); settings: read-out: % control
T1 construct: purchased DiscoveRx/Eurofin

CDKs = test: Kinome profiling of NGN-006; settings: kinases that HSB-13 inhibits
DLK (MAP3K12) = molecular target: T2, DLK (MAP3K12) (Homo sapiens, UniProt Q12852); test: KINOMEscan kinome profiling (DiscoveRx/Eurofin platform); settings: KINOMEscan DLK (Entrez MAP3K12), read-out: % control
T2 construct: purchased DiscoveRx/Eurofin

CSNK1G1 = molecular target: T3, CSNK1G1 (Homo sapiens, UniProt Q9HCP0); test: as above; settings: read-out: % control
T3 construct: purchased DiscoveRx/Eurofin

CSF1R -autoinhibited = molecular target: T4, CSF1R -autoinhibited (Homo sapiens, UniProt P07333); test: as above; settings: read-out: % control
T4 construct: purchased DiscoveRx/Eurofin

CSNK1G3 = molecular target: T5, CSNK1G3 (Homo sapiens, UniProt Q9Y6M4); test: as above; settings: read-out: % control
T5 construct: purchased DiscoveRx/Eurofin

DRAK2 (STK17B) = molecular target: T6, DRAK2 (STK17B) (Homo sapiens, UniProt O94768); test: as above
T6 construct: purchased DiscoveRx/Eurofin

EGFR(E746-A750del) = molecular target: T7, EGFR(E746-A750del) (Homo sapiens, UniProt P00533, DEL746-750); test: as above; settings: read-out: % control
T7 construct: purchased DiscoveRx/Eurofin

GSK3β = GSK3β (Homo sapiens, UniProt P49841); test: Kinome profiling of NGN-006; settings: kinase that HSB-13 inhibits
CSF1R = molecular target: T8, CSF1R (Homo sapiens, UniProt P07333); test: KINOMEscan kinome profiling (DiscoveRx/Eurofin platform); settings: read-out: % control
T8 construct: purchased DiscoveRx/Eurofin

CSNK1A1L = molecular target: T9, CSNK1A1L (Homo sapiens, UniProt Q8N752); test: as above; settings: read-out: % control
T9 construct: purchased DiscoveRx/Eurofin

EGFR(L747-T751del,Sins) = test: as above; settings: 1 uM
CTK (MATK) = molecular target: T10, CTK (MATK) (Homo sapiens, UniProt P42679); test: as above; settings: KINOMEscan CTK (Entrez MATK), read-out: % control
T10 construct: purchased DiscoveRx/Eurofin

CLK3 = molecular target: T11, CLK3 (Homo sapiens, UniProt P49761); test: as above; settings: read-out: % control
T11 construct: purchased DiscoveRx/Eurofin

[1] = molecular target: other members of the DAPK family; test: Kinome profiling of NGN-006
CSNK1D = molecular target: T12, CSNK1D (Homo sapiens, UniProt P48730); test: KINOMEscan kinome profiling (DiscoveRx/Eurofin platform); settings: read-out: % control
T12 construct: purchased DiscoveRx/Eurofin

DDR1 = molecular target: T13, DDR1 (Homo sapiens, UniProt Q08345); test: as above; settings: read-out: % control
T13 construct: purchased DiscoveRx/Eurofin

CSNK2A1 = molecular target: T14, CSNK2A1 (Homo sapiens, UniProt P68400); test: as above; settings: read-out: % control
T14 construct: purchased DiscoveRx/Eurofin

DCAMKL2 (DCLK2) = molecular target: T15, DCAMKL2 (DCLK2) (Homo sapiens, UniProt Q8N568); test: as above; settings: KINOMEscan DCAMKL2 (Entrez DCLK2), read-out: % control
T15 construct: purchased DiscoveRx/Eurofin

CIT = molecular target: T16, CIT (Homo sapiens, UniProt O14578); test: as above; settings: read-out: % control
T16 construct: purchased DiscoveRx/Eurofin

DDR2 = molecular target: T17, DDR2 (Homo sapiens, UniProt Q16832); test: as above; settings: read-out: % control
T17 construct: purchased DiscoveRx/Eurofin

EGFR = molecular target: T18, EGFR (Homo sapiens, UniProt P00533); test: as above; settings: read-out: % control
T18 construct: purchased DiscoveRx/Eurofin

[2] = molecular target: T19, EGFR(L747-S752del, P753S) (Homo sapiens, UniProt P00533, DEL747-752/P753S); test: as above; settings: read-out: % control
T19 construct: purchased DiscoveRx/Eurofin

EGFR(G719S) = molecular target: T20, EGFR(G719S) (Homo sapiens, UniProt P00533, G719S); test: as above; settings: read-out: % control
T20 construct: purchased DiscoveRx/Eurofin

CSK = molecular target: T21, CSK (Homo sapiens, UniProt P41240); test: as above; settings: read-out: % control
T21 construct: purchased DiscoveRx/Eurofin

DYRK1A = molecular target: T22, DYRK1A (Homo sapiens, UniProt Q13627); test: as above; settings: read-out: % control
T22 construct: purchased DiscoveRx/Eurofin

DAPK2 = molecular target: T23, DAPK2 (Homo sapiens, UniProt Q9UIK4); test: as above; settings: read-out: % control
T23 construct: purchased DiscoveRx/Eurofin

DRAK1/STK17a = molecular target: T24, DRAK1/STK17a (Homo sapiens, UniProt Q9UEE5); test: as above; settings: KINOMEscan DRAK1 (Entrez STK17A), read-out: % control
T24 construct: purchased DiscoveRx/Eurofin

T6 sequence (O94768 whole entry): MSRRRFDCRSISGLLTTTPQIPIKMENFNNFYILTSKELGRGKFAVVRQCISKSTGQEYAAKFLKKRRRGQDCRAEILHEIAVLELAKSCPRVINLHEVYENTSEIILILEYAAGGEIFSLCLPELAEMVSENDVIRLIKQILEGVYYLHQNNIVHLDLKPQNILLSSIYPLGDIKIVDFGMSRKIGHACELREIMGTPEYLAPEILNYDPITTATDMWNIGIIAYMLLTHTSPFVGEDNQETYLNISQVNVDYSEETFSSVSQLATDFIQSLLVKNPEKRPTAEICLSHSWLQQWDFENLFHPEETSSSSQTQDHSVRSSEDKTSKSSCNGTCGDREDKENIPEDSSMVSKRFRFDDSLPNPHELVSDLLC
T10 sequence (P42679 whole entry): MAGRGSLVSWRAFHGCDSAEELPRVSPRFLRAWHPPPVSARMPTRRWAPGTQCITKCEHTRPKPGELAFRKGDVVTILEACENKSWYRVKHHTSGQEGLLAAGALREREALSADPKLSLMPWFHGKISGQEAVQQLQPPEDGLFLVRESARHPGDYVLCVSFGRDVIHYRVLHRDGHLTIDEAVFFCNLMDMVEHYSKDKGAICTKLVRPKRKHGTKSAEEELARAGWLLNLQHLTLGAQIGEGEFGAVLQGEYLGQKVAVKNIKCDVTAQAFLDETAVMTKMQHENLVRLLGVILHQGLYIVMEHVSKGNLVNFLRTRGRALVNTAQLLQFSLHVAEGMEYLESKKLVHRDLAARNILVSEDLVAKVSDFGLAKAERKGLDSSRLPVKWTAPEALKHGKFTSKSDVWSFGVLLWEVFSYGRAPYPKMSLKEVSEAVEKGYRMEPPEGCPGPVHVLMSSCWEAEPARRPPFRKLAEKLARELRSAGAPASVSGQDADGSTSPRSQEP
T13 sequence (Q08345 19-913): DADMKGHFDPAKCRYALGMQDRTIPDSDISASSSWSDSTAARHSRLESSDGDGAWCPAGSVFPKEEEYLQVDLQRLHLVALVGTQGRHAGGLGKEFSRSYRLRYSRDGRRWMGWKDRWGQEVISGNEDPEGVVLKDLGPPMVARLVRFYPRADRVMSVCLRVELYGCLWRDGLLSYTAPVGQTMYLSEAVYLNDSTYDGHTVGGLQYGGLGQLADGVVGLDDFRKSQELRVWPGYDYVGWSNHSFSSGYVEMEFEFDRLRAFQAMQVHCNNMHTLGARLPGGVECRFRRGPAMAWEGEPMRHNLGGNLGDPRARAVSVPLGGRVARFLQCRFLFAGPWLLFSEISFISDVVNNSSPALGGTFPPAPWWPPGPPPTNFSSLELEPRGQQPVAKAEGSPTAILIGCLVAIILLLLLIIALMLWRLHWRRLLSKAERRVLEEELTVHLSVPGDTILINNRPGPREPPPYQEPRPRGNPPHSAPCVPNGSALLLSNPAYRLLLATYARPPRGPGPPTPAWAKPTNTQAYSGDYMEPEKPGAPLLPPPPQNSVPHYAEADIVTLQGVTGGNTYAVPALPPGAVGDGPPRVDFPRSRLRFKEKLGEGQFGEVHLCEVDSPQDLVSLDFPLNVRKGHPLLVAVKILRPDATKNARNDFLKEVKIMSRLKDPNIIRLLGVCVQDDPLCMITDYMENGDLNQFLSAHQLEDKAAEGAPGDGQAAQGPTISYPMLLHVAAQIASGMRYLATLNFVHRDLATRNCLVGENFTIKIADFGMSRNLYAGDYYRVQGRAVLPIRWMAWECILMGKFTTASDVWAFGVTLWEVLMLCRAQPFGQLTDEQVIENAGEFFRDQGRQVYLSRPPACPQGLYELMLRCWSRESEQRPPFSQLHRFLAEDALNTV
T14 sequence (P68400 whole entry): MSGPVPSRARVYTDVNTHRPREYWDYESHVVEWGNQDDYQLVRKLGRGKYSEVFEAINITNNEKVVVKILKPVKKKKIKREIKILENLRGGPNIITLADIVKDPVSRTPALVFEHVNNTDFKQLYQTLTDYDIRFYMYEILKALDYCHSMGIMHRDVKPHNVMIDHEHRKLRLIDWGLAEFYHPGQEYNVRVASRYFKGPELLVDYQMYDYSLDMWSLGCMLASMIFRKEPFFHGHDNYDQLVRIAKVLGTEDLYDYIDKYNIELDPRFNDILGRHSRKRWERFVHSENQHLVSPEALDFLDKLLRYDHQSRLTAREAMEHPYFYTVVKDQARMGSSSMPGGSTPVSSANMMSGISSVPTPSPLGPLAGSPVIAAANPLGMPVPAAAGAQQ
T5 sequence (Q9Y6M4 whole entry): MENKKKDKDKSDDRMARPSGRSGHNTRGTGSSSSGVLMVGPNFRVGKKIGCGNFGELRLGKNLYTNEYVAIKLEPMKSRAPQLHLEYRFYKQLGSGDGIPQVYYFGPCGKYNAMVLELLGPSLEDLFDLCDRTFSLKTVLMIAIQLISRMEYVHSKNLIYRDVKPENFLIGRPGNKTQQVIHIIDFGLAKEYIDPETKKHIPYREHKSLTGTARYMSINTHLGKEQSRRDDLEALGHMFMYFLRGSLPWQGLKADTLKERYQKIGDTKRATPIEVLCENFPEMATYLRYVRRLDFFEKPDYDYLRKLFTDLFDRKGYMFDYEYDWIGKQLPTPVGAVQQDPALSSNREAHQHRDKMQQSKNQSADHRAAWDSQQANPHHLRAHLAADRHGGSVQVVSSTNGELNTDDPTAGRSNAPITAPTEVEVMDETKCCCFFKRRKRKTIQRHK
T2 sequence (Q12852 whole entry): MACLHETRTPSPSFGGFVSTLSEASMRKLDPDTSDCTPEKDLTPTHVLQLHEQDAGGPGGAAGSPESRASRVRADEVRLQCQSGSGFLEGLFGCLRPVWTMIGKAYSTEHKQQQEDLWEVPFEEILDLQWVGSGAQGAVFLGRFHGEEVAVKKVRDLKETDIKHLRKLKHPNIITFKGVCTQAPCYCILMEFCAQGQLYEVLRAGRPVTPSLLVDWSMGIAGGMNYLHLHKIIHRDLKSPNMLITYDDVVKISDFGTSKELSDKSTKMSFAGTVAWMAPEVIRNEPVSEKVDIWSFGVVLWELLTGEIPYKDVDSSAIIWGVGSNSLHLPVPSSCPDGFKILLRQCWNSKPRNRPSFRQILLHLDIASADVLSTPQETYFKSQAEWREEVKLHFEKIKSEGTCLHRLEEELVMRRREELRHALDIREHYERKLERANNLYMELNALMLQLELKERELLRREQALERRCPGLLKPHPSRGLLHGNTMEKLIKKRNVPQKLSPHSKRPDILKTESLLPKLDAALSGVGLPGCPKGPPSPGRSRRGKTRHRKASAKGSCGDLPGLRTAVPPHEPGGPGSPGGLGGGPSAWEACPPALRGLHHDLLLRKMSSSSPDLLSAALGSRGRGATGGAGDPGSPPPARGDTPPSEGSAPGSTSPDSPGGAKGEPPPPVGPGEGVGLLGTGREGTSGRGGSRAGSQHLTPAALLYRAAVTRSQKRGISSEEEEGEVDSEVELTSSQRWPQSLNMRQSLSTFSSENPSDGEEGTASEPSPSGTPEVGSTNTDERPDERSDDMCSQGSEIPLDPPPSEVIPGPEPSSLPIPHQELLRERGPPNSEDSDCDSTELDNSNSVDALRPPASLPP
T3 sequence (Q9HCP0 whole entry): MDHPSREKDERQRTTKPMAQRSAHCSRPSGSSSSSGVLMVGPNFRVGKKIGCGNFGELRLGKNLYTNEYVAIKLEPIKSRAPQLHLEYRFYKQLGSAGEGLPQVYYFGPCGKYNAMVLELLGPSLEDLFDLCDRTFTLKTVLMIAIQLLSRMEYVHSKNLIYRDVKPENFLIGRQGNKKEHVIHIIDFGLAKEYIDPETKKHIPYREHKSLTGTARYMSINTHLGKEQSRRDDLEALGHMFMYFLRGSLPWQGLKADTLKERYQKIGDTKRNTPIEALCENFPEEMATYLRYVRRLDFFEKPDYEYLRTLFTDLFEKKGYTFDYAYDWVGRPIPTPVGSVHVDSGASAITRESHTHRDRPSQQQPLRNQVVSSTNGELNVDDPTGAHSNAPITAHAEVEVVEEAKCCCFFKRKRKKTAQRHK
T8 sequence (P07333 20-972): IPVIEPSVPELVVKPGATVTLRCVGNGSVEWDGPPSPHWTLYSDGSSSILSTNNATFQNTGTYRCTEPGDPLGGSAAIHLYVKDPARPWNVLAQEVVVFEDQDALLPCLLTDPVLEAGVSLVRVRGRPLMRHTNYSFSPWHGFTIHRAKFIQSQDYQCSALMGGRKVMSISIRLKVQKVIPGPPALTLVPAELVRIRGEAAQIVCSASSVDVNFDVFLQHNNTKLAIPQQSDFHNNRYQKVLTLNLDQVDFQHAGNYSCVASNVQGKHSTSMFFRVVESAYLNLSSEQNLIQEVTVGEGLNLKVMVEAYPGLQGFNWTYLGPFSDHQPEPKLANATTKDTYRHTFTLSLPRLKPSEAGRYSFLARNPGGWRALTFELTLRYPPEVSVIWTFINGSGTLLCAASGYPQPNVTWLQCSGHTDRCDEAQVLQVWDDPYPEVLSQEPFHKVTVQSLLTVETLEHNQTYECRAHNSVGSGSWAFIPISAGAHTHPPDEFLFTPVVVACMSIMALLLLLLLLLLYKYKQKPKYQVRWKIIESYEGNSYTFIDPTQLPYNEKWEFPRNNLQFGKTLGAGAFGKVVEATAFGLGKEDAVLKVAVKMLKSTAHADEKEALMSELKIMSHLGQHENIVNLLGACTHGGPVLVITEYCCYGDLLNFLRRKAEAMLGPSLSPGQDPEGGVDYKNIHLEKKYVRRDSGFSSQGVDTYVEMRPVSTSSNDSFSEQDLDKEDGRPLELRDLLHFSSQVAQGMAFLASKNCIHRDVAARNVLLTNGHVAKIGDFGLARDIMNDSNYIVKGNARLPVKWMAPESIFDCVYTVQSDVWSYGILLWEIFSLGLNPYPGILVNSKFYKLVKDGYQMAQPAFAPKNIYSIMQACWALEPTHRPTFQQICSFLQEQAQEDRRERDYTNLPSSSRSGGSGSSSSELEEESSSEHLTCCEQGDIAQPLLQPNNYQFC

Nc1ccc2c(c1)NC(=O)/C(=C/c1ccc(Cl)cc1)O2 [NGN-006, (2Z)-6-amino-2-[(4-chlorophenyl)methylidene]-3,4-dihydro-2H-1,4-benzoxazin-3-one]
remaining binding at 1 µM (CSNK1E): 89%
kinase inhibition (in words) (CDKs): does not inhibit
remaining binding at 1 µM (DLK (MAP3K12)): 100%
remaining binding at 1 µM (CSNK1G1): 100%
remaining binding at 1 µM (CSF1R -autoinhibited): 100%
remaining binding at 1 µM (CSNK1G3): 84%
remaining binding at 1 µM (DRAK2 (STK17B); KINOMEscan DRAK2 (Entrez STK17B), 1 uM, read-out: % control): 83%
kinase inhibition (in words) (DRAK2 (STK17B); closely-related DRAK2 protein): not inhibited
remaining binding at 1 µM (EGFR(E746-A750del)): 100%
kinase inhibition (in words) (GSK3β): does not inhibit
remaining binding at 1 µM (CSF1R): 100%
remaining binding at 1 µM (CSNK1A1L): 100%
% control (EGFR(L747-T751del,Sins)): 100%
remaining binding at 1 µM (CTK (MATK)): 100%
remaining binding at 1 µM (CLK3): 92%
kinase inhibition (in words) [1]: not inhibited
remaining binding at 1 µM (CSNK1D): 100%
remaining binding at 1 µM (DDR1): 100%
remaining binding at 1 µM (CSNK2A1): 100%
remaining binding at 1 µM (DCAMKL2 (DCLK2)): 98%
remaining binding at 1 µM (CIT): 100%
remaining binding at 1 µM (DDR2): 100%
remaining binding at 1 µM (EGFR): 87%
remaining binding at 1 µM [2]: 100%
remaining binding at 1 µM (EGFR(G719S)): 98%
remaining binding at 1 µM (CSK): 97%
remaining binding at 1 µM (DYRK1A): 100%
remaining binding at 1 µM (DAPK2): 86%
remaining binding at 1 µM (DRAK1/STK17a): 26%
